We go through nine molecules from patent US9388142B2, “Quinazolinone derivatives as PARP inhibitors” (MERCK PATENT GMBH, priority 2012, dated 2016).

The conditions of assay [1]: at 30 μM; cited from earlier work.
Assay [2] addresses T1, GST-tagged Tankyrase-1 (1023-1327 aa) (Homo sapiens, UniProt O95271).
T1 construct: GST-tagged Tankyrase-1 (1023-1327 aa)
Briefly: biochemical. The settings on record: read-out: IC50 tankyrase 1 (enzyme assay). An excerpt:
(§1) aq (aqueous), h (hour), g (gram), L (liter), mg (milligram), MHz (Megahertz), min. (minute), mm (millimeter), mmol (millimole), mM (millimolar), m.p. (melting point), eq (equivalent), mL (milliliter), L (microliter), ACN (acetonitrile), AcOH (acetic acid), CDCl3 (deuterated chloroform), CD3OD (deuterated methanol), CH3CN (acetonitrile), c-hex (cyclohexane), DCC (dicyclohexyl carbodiimide), DCM (dichloromethane), DIC (diisopropyl carbodiimide), DIEA (diisopropylethyl-amine), DMF (dimethylformamide), DMSO (dimethylsulfoxide), DMSO-d6 (deuterated dimethylsulfoxide), EDC (1-(3-dimethyl-amino-propyl)-3-ethylcarbodiimide), ESI (Electro-spray ionization), EtOAc (ethyl acetate), Et2O (diethyl ether), EtOH (ethanol), HATU (dimethylamino-([1,2,3]triazolo[4,5-b]pyridin-3-yloxy)-methylene]-dimethylammonium hexafluorophosphate), HPLC (High Performance Liquid Chromatography), i-PrOH (2-propanol), K2CO3 (potassium carbonate), LC (Liquid Chromatography), MeOH (methanol), MgSO4 (magnesium sulfate), MS (mass spectrometry), MTBE (Methyl tert-butyl ether), NaHCO3 (sodium bicarbonate), NaBH4 (sodium borohydride), NMM (N-methyl morpholine), NMR (Nuclear Magnetic Resonance), PyBOP (benzotriazole-1-yl-oxy-trispyrrolidino-phosphonium hexafluorophosphate), RT (room temperature), Rt (retention time), SPE (solid phase extraction), TBTU (2-(1-H-benzotriazole-1-yl)-1,1,3,3-tetramethyluromium tetrafluoro borate), TEA (triethylamine), TFA (trifluoroacetic acid), THF (tetrahydrofuran), TLC (Thin Layer Chromatography), UV (Ultraviolet). Description of the In Vitro Assays Abbreviations: GST=Glutathione-S-transferase FRET=Fluorescence resonance energy transfer HTRF®=(homogenous time resolved fluorescence) HEPES=4-(2-hydroxyethyl)-1-piperazine ethanesulfonic acid buffer DTT=Dithiothreitol BSA=bovine serum albumin CHAPS=detergent; CHAPS=3[(3-cholamidopropyl)dimethylammonio]-1-propanesulfonate Streptavidin-XLent® is a high grade streptavidin-XL665 conjugate for which the coupling conditions have been optimized to yield a conjugate with enhanced performances for some assays, particularly those requiring high sensitivity.
(§2) The autoparsylation assay is run in two steps: the enzymatic reaction in which GST-tagged Tankyrase-1, resp Tankyrase-2 transferred biotinylated ADP-ribose to itself from biotinylated NAD as co-substrate and the detection reaction where a time resolved FRET between cryptate labelled anti-GST bound to the GST tag of the enzyme and Xlent® labelled-streptavidin bound the biotin-parsylation residue is analysed. The autoparsylation activity was detectable directly via the increase in HTRF signal.
(§3) The autoparsylation assay is performed as 384-well HTRF® (Cisbio, Codolet, France) assay format in Greiner low volume nb 384-well microtiter plates and is used for high throughput screen. […] The reaction is stopped by the addition of 1 μl 50 mM EDTA solution. […] The ratio of the emission signals is determined. The full value used is the inhibitor-free reaction. […] The inhibitory values (IC50) are determined using either the program Symyx Assay Explorer® or Condosseo® from GeneData.

The target of assay [3] is GST-tagged Tankyrase-2 (873-1166 aa) (Homo sapiens, UniProt Q9H2K2). Briefly: biochemical.
Chain of GST-tagged Tankyrase-2 (873-1166 aa) (Q9H2K2 873-1166): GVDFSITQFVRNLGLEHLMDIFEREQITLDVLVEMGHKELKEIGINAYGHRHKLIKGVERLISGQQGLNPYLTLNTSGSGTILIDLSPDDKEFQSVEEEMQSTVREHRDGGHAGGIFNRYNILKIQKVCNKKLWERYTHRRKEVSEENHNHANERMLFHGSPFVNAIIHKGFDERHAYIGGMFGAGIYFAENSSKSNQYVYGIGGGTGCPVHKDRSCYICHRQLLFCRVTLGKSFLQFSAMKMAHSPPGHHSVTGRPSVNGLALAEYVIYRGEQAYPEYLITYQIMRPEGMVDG
Text: as §1, §2, §3

In assay [4] the target is T2, GST-tagged Tnks-1 (1023-1327 aa) (Homo sapiens, UniProt O95271).
T2 construct: GST-tagged Tnks-1 (1023-1327 aa, prepared in-house); made in house
T2 sequence (O95271 1023-1327): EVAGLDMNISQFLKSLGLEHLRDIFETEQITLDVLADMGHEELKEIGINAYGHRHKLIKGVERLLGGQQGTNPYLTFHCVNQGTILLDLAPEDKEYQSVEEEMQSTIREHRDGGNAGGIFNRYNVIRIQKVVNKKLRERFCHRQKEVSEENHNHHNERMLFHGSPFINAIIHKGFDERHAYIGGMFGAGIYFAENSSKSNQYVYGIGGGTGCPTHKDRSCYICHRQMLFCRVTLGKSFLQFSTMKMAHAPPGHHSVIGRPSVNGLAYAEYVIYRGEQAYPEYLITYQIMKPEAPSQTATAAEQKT
Briefly: TNKS1 activity ELISA (autoparsylation assay). Format: biochemical. Here is the method:
(§4) Description of the TNKS1 and TNKS2 ELISA Assay
(§5) Then the activity assay with biotinylated NAD is performed in the absence/presence of the compounds. During the enzymatic reaction GST tagged TNKS transfers biotinylated ADP-ribose to itself from biotinylated NAD as co-substrate. For the detection streptavidin-HRP conjugate is added that binds to the biotinylated TNKS and is thereby captured to the plates. The amount of biotinylated resp. autoparsylated TNKS is detected with a luminescence substrate for HRP. The level of the luminescence signal correlates directly with the amount of autoparsylated TNKS and therefore with activity of TNKS.
(§6) The activity ELISA is performed in 384 well Glutathione coated microtiter plates (Express capture Glutathione coated plate, Biocat, Heidelberg, Germany). The plates are pre-equilibrated with PBS. […] The plates are washed 3 times with PBS-Tween-20. The wells are blocked by incubation at room temperature for 20 minutes with 50 μl blocking buffer (PBS, 0.05% Tween-20, 0.5% BSA). Afterwards the plates are washed 3 times with PBS-Tween-20. […] The reaction is stopped by 3 times washing with PBS-Tween-20. For the detection 50 μl of 20 ng/μl Streptavidin, HRP conjugate (MoBiTec, Gottingen, Germany) in PBS/0.05% Tween-20/0.01% BSA are added and the plates are incubated for 30 minutes at room temperature. After three times washing with PBS-Tween-20 50 μl of SuperSignal ELISA Femto Maximum sensitivity substrate solution (ThermoFisherScientific (Pierce), Bonn, Germany) are added. Following a 1 minute incubation at room temperature luminescence signals are measured with an Envision multimode reader (Perkin Elmer LAS Germany GmbH) at 700 nm. The full value used is the inhibitor-free reaction. […] The inhibitory values (IC50) are determined using either the program Symyx Assay Explorer® or Condosseo® from GeneData.
In general terms: In an ELISA, binding on a coated surface is turned into a signal by an enzyme label.

Another assay has as its target T3, His-tagged Parp-1 (Homo sapiens, UniProt P09874).
T3 construct: purchased Enzo Life Sciences GmbH, Lörrach, Germany
Briefly: PARP-1 autoparsylation assay (HTRF). Format: biochemical. From the text:
Description of the PARP1 Assay
Biochemical Activity Testing of PARP-1: Autoparsylation Assay
The autoparsylation assay is run in two steps: the enzymatic reaction in which His-tagged Parp-1 transfers biotinylated ADP-ribose/ADP-ribose to itself from biotinylated NAD/NAD as co-substrate and the detection reaction where a time resolved FRET between cryptate labelled anti-His antibody bound to the His tag of the enzyme and Xlent® labelled-streptavidin bound the biotin-parsylation residue is analysed. The autoparsylation activity is detectable directly via the increase in HTRF signal.
The autoparsylation assay is performed as 384-well HTRF® (Cisbio, Codolet, France) assay format in Greiner low volume nb 384-well microtiter plates. 35 nM His-tagged Parp-1 (human, recombinant, Enzo Life Sciences GmbH, Lörrach, Germany) and a mixture of 125 nM bio-NAD (Biolog, Life science Inst., Bremen, Germany) and 800 nM NAD as co-substrate are incubated in a total volume of 6 μl (100 mM Tris/HCl, 4 mM Mg-chloride, 0.01% IGEPAL® CA630, 1 mM DTT, 0.5% DMSO, pH 8, 13 ng/μl activated DNA (BPS Bioscience, San Diego, US)) in the absence or presence of the test compound (10 dilution concentrations) for 150 min at 23° C. The reaction is stopped by the addition of 4 μl of the Stop/detection solution (70 nM SA-Xlent® (Cisbio, Codolet, France), 2.5 nM Anti-His-K® (Eu-labelled anti-His, Cisbio, Codolet, France) in 50 mM HEPES, 400 mM KF, 0.1% BSA, 20 mM EDTA, pH 7.0). After 1 h incubation at room temperature the HTRF iss measured with an Envision multimode reader (Perkin Elmer LAS Germany GmbH) at excitation wavelength 340 nm (laser mode) and emission wavelengths 615 nm and 665 nm. The ratio of the emission signals is determined. The full value used is the inhibitor-free reaction. The pharmacological zero value used is Olaparib (LClabs, Woburn, US) in a final concentration of 1 The inhibitory values (IC50) are determined using either the program Symyx Assay Explorer® or Condosseo® from GeneData.
For orientation: In TR-FRET formats the signal depends on donor and acceptor labels being close together.

For the next assay, the system named is tankyrase 1/2. Briefly: Cellular inhibition of tankyrase: increase of Axin2 level in DLD1 cells (Luminex). Format: cell-based. The settings on record: read-out: EC50 tankyrase 1/2 (cell assay), 24 hours. Here is the method: Measurement of Cellular Inhibition of Tankyrase
Cells of the colon carcinoma cell line DLD1 are plated in 96 well plates with 1.5×10^4 cells per well. Next day, cells are treated with a serial dilution of test compound in seven steps as triplicates with a final DMSO concentration of 0.3%. After 24 hours, cells are lysed in lysis buffer (20 mM Tris/HCl pH 8.0, 150 mM NaCl, 1% NP40, 10% Glycerol) and lysates are cleared by centrifugation through a 96 well filter plate (0.65 μm). […] The amount of isolated Axin2 protein is determined in a Luminex^200 machine (Luminex Corporation) according to the manufacturer's instruction by counting 100 events per well. […] For analysis, the obtained data are normalized against the untreated solvent control and fitted for determination of the EC50 values using the Assay Explorer software (Accelrys).

The target in assay [5] is GST-tagged Tnks-2 (873-1166 aa) (Homo sapiens, UniProt Q9H2K2). Briefly: biochemical. Here is the method:
as §4, §5, §6

Another assay relates to β-catenin. To be noted: by increasing the levels of the AXIN1 and AXIN2 proteins; cited from earlier work.
Another assay deals with DLD-1-cancer cells. To be noted: cited from earlier work.

Usually IC50 stands for the concentration that gives 50% inhibition.

Counter-ions that a name gives are not always drawn. Like-named read-outs stand apart in the source and are kept apart here.

T1 sequence (O95271 1023-1327): as above
T3 sequence (P09874 whole entry): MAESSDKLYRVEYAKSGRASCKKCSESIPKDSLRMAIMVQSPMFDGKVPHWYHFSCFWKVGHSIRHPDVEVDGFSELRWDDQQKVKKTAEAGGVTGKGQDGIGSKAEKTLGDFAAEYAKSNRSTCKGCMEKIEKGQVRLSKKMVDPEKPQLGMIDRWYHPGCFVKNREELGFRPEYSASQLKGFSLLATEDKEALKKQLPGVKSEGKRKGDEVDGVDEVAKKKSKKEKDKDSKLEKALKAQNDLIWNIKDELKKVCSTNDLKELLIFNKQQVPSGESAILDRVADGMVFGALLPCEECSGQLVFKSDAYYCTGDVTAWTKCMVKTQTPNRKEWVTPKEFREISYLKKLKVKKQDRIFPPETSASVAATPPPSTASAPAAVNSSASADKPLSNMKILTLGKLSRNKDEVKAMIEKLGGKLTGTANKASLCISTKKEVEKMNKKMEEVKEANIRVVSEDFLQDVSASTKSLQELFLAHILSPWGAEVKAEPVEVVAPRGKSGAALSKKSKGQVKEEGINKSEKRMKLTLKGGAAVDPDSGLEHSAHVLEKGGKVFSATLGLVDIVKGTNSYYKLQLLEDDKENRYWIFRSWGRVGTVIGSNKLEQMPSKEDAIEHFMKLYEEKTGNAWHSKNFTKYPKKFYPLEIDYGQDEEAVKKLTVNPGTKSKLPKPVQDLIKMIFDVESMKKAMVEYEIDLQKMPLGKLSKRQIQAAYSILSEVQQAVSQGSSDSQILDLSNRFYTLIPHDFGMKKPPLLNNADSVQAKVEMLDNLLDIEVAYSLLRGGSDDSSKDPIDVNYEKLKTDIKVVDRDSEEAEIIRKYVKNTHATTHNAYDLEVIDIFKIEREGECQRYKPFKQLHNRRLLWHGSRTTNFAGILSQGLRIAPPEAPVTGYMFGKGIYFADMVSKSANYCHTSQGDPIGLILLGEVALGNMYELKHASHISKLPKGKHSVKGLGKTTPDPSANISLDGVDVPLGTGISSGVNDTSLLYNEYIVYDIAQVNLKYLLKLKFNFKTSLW
Chain of GST-tagged Tnks-2 (873-1166 aa) (Q9H2K2 873-1166): as the sequence (Q9H2K2 873-1166) above

As for `O=c1[nH]c(-c2ccc3c(c2)OCO3)nc2ccccc12`, the cellular assay result in [1] was “no effect”.
For the molecule `CC(C)c1ccc(-c2nc3ccc(F)cc3c(=O)[nH]2)cc1` [Compound A22, 6-fluoro-2-(4-isopropyl-phenyl)-3H-quinazolin-4-one], the IC50 in [2] and in [3] was 300 to 3000 nM in each case.
As for `Cc1cccc2c(=O)[nH]c(-c3ccc(C(C)(C)O)cc3)nc12` [Compound A24, 2-[4-(1-hydroxy-1-methyl-ethyl)-phenyl]-8-methyl-3H-quinazolin-4-one], the IC50 (in assay [2]; in assay [4] (read-out: IC50 TNKS1 ELISA); against His-tagged Parp-1) was under 300 nM throughout.
With `Cc1cc(F)cc2c(=O)[nH]c(-c3ccc(C(C)(C)O)cc3)nc12` [Compound A25, 6-fluoro-2-[4-(1-hydroxy-1-methyl-ethyl)-phenyl]-8-methyl-3H-quinazolin-4-one], the IC50 (in assay [2]; in assay [4] (read-out: IC50 TNKS1 ELISA); at His-tagged Parp-1) was under 300 nM in each case.
For `Cc1cc(F)cc2c(=O)[nH]c(-c3ccc(N4CCN(C)CC4)cc3)nc12` [Compound A28, 6-fluoro-8-methyl-2-[4-(4-methyl-piperazin-1-yl)-phenyl]-3H-quinazolin-4-one], the IC50 was 300 to 3000 nM in assay [2], under 300 nM in assay [4] (read-out: IC50 TNKS1 ELISA) and under 300 nM at His-tagged Parp-1.
`Cc1cc(F)cc2c(=O)[nH]c(-c3ccc(N4CCS(=O)(=O)CC4)cc3)nc12` [Compound A30, 2-[4-(1,1-dioxo-1|6-thiomorpholin-4-yl)-phenyl]-6-fluoro-8-methyl-3H-quinazolin-4-one]: the EC50 with tankyrase 1/2 was under 300 nM. The concentration for half-maximal inhibition (IC50) in [2] is 300 to 3000 nM; in assay [3] it was 300 to 3000 nM; in [5] it was under 300 nM; in assay [4], under 300 nM; at His-tagged Parp-1, 300 to 3000 nM.
As for `Cc1cc(F)cc2c(=O)[nH]c(-c3ccc(N4CCCN(C)CC4)cc3)nc12` [Compound A32, 6-fluoro-8-methyl-2-[4-(4-methyl-[1,4]diazepan-1-yl)-phenyl]-3H-quinazolin-4-one], the EC50 with tankyrase 1/2 was in the range of 300 to 3000 nM. Also, the IC50 in assay [2] and in [3] was 300 to 3000 nM throughout.
In the case of `Cc1cc(F)cc2c(=O)[nH]c(-c3ccc(C4CCNCC4)cc3)nc12` [Compound A33, 6-fluoro-8-methyl-2-(4-piperidin-4-yl-phenyl)-3H-quinazolin-4-one hydrochloride], the results for the IC50 (in assay [2]; in assay [4]; on His-tagged Parp-1) were under 300 nM, under 300 nM and 300 to 3000 nM, respectively.
Regarding `Oc1nc(-c2ccc(C(F)(F)F)cc2)nc2c1CSCC2` [XAV939], the “Wnt-stimulated accumulation of β-catenin” value with β-catenin is reported as “blocked”. In addition, the “growth of DLD-1-cancer cells” value in the assay with DLD-1-cancer cells is given as “inhibits growth”.
